From patent US5614521A, “Benzene derivatives having NGF production-promoting activity” (Sankyo Company, Limited, priority 1991, dated 1997)

What follows are compounds tested on L-M cells (assay: NGF production and secretion by mouse L-M cells (NGF promoter activity), NGF level by enzyme immunoassay). Details: 24 h, read-out: % Control (NGF produced and secreted relative to cells not treated with the test compounds).
Type: cell-based
Description: Furukawa et al. have reported that fibroblast-forming L-M cells from mouse connective tissue can produce and secrete a relatively large amount of NGF, and that catecholamines accelerate such production and secretion of NGF (J. Biol. Chem., 261, 6039-6047, 1986). […] The test compounds of this invention were employed at 10 γ/ml, and the known compounds were employed at 20 γ/ml.
Culture medium 199 containing 0.5% peptone was used for culturing L-M cells (for the culture medium 199, see, for instance, Morgan et al., proc. Soc. Exp. Biol. Med., 73, 1 (1950) or Morgan et al. J. Natl. Cancer Inst., 16, 557 (1955). About […] of L-M cells were placed in each well of a culture plate with 24 wells, and cultured using a CO2 incubator (37° C., 5% CO2) until confluence. After removing the culture medium, the cultured cells were washed once with a wash solution which was 199 culture medium containing 0.5% bovine serum albumin (Fraction V, Sigma). The test compounds were added to a specified concentration to a 199 culture medium containing 0.5% bovine serum albumin, and used to treat 0.5 ml of L-M cells. After culturing the L-M cells in a CO2 incubator for 24 hours, the medium was recovered and the NGF level was determined.
NGF was quantitatively determined using an enzyme immunoassay [Korshing, Thoenen, et al. Proc. Natl. Acad. Sci. USA, 80, 3513-3516, (1983)]. 75 μl of a solution of anti-mouse β-NGF antibody (0.3 μg/ml, pH 9.6; Boehringer Mannheim) was piperted into each well of a polystyrene plate with 96 wells. After allowing the plate to stand at room temperature for an hour, the antibody was removed by washing three times with the wash solution. 50 μl of a solution of standard β-NGF (Wako Pure Chemical Industries Ltd.) or of the recovered medium was piperted into the wells. After allowing the plate to stand for […] at room temperature,the standard β-NGF or test solution was removed and each well was washed three times. 50 μl of a solution of β-NGF monoclonal antibody (100 mU/ml, pH 7.0; BoehringerMannheim) labelled with β-galactosidase was piperted into each well. After allowing the plate to stand at 4° C. for 15-18 hours, enzyme labelled antibody was removed and the wells washed three times followed by pipetting 100 μl of a solution of chlorophenol red-β-D-galactopyranoside (1 mg/ml, pH 7.3; BoehringerMannheim) into each well. Color was allowed to develop (after 2-3 hours at room temperature), and the absorbance was determined at 570 nm.
The amount of NGF was calculated from a standard curve. The results are expressed as a relative value (%) which is relative to the amount of NGF produced and secreted by cells treated not with the test compounds. The numerical values (% Control) are expressed by the mean value in the 3 wells of the control (without addition of the test compounds).
`CNC[C@H](O)c1ccc(O)c(O)c1` [epinephrine, reference compound] showed an activity at 20 µg/mL of 140 ± 24%.

Same assay, conditions: known compounds at 20 γ/ml, L-M cells, 24 hours, 37° C., read-out: % Control (NGF produced and secreted relative to cells not treated with the test compounds)
`N[C@@H](Cc1ccc(O)c(O)c1)C(=O)O` [L-DOPA, reference compound] gave an activity at 20 µg/mL of 117 ± 7%.
For `O=C(O)/C=C/c1ccc(O)c(O)c1` [caffeic Acid, reference compound], the activity at 20 µg/mL was 123 ± 14%.
With `CC(C)NCC(O)c1ccc(O)c(O)c1` (stereo not drawn) [isoproterenol, reference compound] the activity at 20 µg/mL was 168 ± 22%.

Same assay, conditions: test compounds of this invention at 10 γ/ml, L-M cells, 24 hours, 37° C., read-out: % Control (NGF produced and secreted relative to cells not treated with the test compounds)
`Nc1ccc(CCC(=O)NC23CC4CC(CC(C4)C2)C3)cc1N` [Example 22, N-(1-Adamantyl)-3-(3,4-diaminophenyl)propionamide] showed an activity at 10 µg/mL of 380%.
`Nc1ccc(CCC(=O)Nc2cnc3ccccc3c2)cc1N` [Example 34, N-(3-Quinolyl)-3-(3,4-diaminophenyl)propiomide] was tested, and the activity at 10 µg/mL was 606%.
Compound `Nc1ccc(CCC(=O)N(c2ccccc2)c2ccccc2)cc1N` [Example 40, N,N-Diphenyl-3-(3,4-diaminophenyl) propionamide] has an activity at 10 µg/mL of 276%.
`Nc1ccc(CCC(=O)Nc2ccc(C(=O)c3ccccc3)cc2)cc1N` [Example 43, N-(4-Benzoylphenyl)-3-(3,4-diaminophenyl)propionamide] showed an activity at 10 µg/mL of 491%.
`Nc1cc(CCC(=O)NC2CCc3ccccc32)ccc1O` (stereo not drawn) [Example 53, N-(1-Indanyl)-3-(4-hydroxy-3-aminophenyl)propionamide] gave an activity at 10 µg/mL of 315%.
